Measurements published in PubChem BioAssay (NCI).
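Following 48 hours of exposure in 96-well plates, responses at five concentrations were used to interpolate endpoints linearly. The concentration for 50% growth inhibition is given as GI50. At the TGI there is no net growth.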

Tests used:
Assay in all cases: NCI anticancer screen, dose series, 48 h
IGROV1 ovarian = tested on: IGROV1 ovarian
SF-295 CNS = tested on: SF-295 CNS
UACC-62 melanoma = tested on: UACC-62 melanoma
A498 renal = tested on: A498 renal
SK-MEL-2 melanoma = tested on: SK-MEL-2 melanoma
OVCAR-8 ovarian = tested on: OVCAR-8 ovarian
COLO 205 colon = tested on: COLO 205 colon
UO-31 renal = tested on: UO-31 renal
RXF 393 renal = tested on: RXF 393 renal
BT-549 breast = tested on: BT-549 breast

| SMILES | GI50 (IGROV1 ovarian) | TGI (IGROV1 ovarian) | GI50 (SF-295 CNS) | TGI (SF-295 CNS) | GI50 (UACC-62 melanoma) | TGI (UACC-62 melanoma) | GI50 (A498 renal) | TGI (A498 renal) | GI50 (SK-MEL-2 melanoma) | TGI (SK-MEL-2 melanoma) | GI50 (OVCAR-8 ovarian) | TGI (OVCAR-8 ovarian) | GI50 (COLO 205 colon) | TGI (COLO 205 colon) | GI50 (UO-31 renal) | TGI (UO-31 renal) | GI50 (RXF 393 renal) | TGI (RXF 393 renal) | GI50 (BT-549 breast) | TGI (BT-549 breast) |
| --- | --- | --- | --- | --- | --- | --- | --- | --- | --- | --- | --- | --- | --- | --- | --- | --- | --- | --- | --- | --- |
| S=c1nc(N/N=C/c2ccco2)c2cn[nH]c2[nH]1 | 46.9 µM | > 100 µM | > 100 µM | > 100 µM | 33.8 µM | > 100 µM | 3.23 µM | 22.5 µM | > 100 µM | > 100 µM | 69.2 µM | > 100 µM | 29.5 µM | 90.8 µM | 98.1 µM | > 100 µM | > 100 µM | > 100 µM | 75.2 µM | > 100 µM |
| CCN(c1cc(-c2ccc(CN3CCOCC3)cc2)cc(C(=O)NCc2c(C)cc(C)[nH]c2=O)c1C)C1CCOCC1 | 30.3 µM | > 63 µM | 26.2 µM | 71.3 µM | 16 µM | 31.6 µM | 9.79 µM | 37.2 µM | 16.6 µM | 35.8 µM | 37.9 µM | > 100 µM | 18.1 µM | 34.9 µM | 14.9 µM | > 51.3 µM | 16.5 µM | 44.7 µM | 17.3 µM | 37.4 µM |
| C#Cc1nc2ccccc2c(=O)[nH]1 | 0.585 µM | 1.7 µM | 3.72 µM | 20.2 µM | 0.286 µM | 1.03 µM | 1.58 µM | 3.26 µM | 2.15 µM | 6.19 µM | 0.897 µM | 8.19 µM | 0.818 µM | 2.42 µM | 0.383 µM | 1.61 µM | 0.249 µM | 0.871 µM | 0.222 µM | 0.422 µM |
| C1CC[N-]CC1.CC(=N\O)/C(C)=N/O.CC(=N\O)/C(C)=N/O.OC1[CH-]CCCC1.[Co+2] | 44.9 µM | > 100 µM | > 100 µM | > 100 µM | 18.1 µM | 41.2 µM | > 100 µM | > 100 µM | 23.9 µM | 59.7 µM | 28.9 µM | > 100 µM | 19 µM | 34.5 µM | > 100 µM | > 100 µM | 19.2 µM | 62.4 µM | 37.8 µM | > 100 µM |
| COc1ccc(C(O)c2cc3c(N)c(C(=O)Nc4cccc(Cl)c4)sc3nc2C)cc1 (stereo not given) | 2.52 µM | > 56 µM | 1.12 µM | > 22.7 µM | 2.14 µM | > 80.2 µM | 0.659 µM | 2.38 µM | 1.29 µM | 42.7 µM | 1.45 µM | > 47.8 µM | 2.79 µM | 25.2 µM | 2.41 µM | > 56.2 µM | 0.31 µM | 1.76 µM | 2.09 µM | > 38.5 µM |
| C1CC2CN(CCCN3CCOCC3)C(C1)O2 (stereo not given) |  | > 100 µM |  | > 100 µM |  | > 100 µM |  | > 100 µM |  | > 100 µM |  | > 100 µM |  | > 100 µM |  | > 100 µM |  | > 100 µM |  | > 100 µM |
| CN(C)CCSS(=O)(=O)O |  | > 100 µM |  | 94.4 µM |  | > 100 µM |  | > 100 µM |  | > 100 µM |  | > 100 µM |  | > 100 µM |  | > 100 µM |  | > 100 µM |  | > 100 µM |
| O=c1cc(N/N=C/c2ccc(F)cc2)c2cc(Cl)ccc2[nH]1 | 18.5 µM | > 100 µM | 21.9 µM | > 100 µM | 16.7 µM | > 100 µM | 14.8 µM | 92.7 µM | 18.3 µM | 69.3 µM | 19.8 µM | > 100 µM | 18.2 µM | 43.5 µM | 21.9 µM | > 100 µM | 23.7 µM | > 100 µM | 15.8 µM | 44.5 µM |
| Cc1c2cc(Cl)c3ccccc3c2c[n+]2ccccc12 | 9.18 µM | 60.3 µM | 0.813 µM | 6.58 µM | 2.61 µM | 13.3 µM | > 49.4 µM | > 100 µM | 3.58 µM | 11.5 µM | 2.42 µM | 26.7 µM | 1.83 µM | 10.2 µM | 9.18 µM | > 100 µM | 12.3 µM | > 65.5 µM | 1.21 µM | 5.4 µM |
| Cc1c2c(c(C)c3c4c(oc13)CCCC4)C=NCC2 |  | 26.5 µM |  | 31.7 µM |  | 29.6 µM |  | 31.9 µM |  | 31.2 µM |  | 23.1 µM |  | 48.5 µM |  | 25.8 µM |  | 15.9 µM |  | 33.7 µM |
| Cc1nc2ccc(NC(=O)CCNC(=O)CCCc3ccc(CC(C(=O)O)C(=O)O)cc3)cc2s1 | > 100 µM | > 100 µM | > 100 µM | > 100 µM | > 100 µM | > 100 µM | > 100 µM | > 100 µM | > 100 µM | > 100 µM | > 100 µM | > 100 µM | > 100 µM | > 100 µM | > 100 µM | > 100 µM | > 100 µM | > 100 µM | > 100 µM | > 100 µM |
| Cn1cc(C2=C(c3cn(C)c4ccc(Cl)cc34)C(=O)NC2=O)c2ccccc21 | 6.51 µM | > 21.7 µM | 1.6 µM | 8.02 µM | 2.42 µM | 8.36 µM | 1.75 µM | 7.09 µM | 1.68 µM | 6.65 µM | 5.16 µM | > 21.6 µM | 1.67 µM | 7.93 µM | 2.54 µM | 11.7 µM | 3.19 µM | 7.76 µM | 3.56 µM | 9.03 µM |
| c1ccc(-c2nc(N3CCOCC3)c3c4c(sc3n2)CCCCCC4)nc1 | 3.16 µM | 9.95 µM | 3.39 µM | 15.8 µM | 3.44 µM | 14.3 µM | 1.65 µM | 8.63 µM | 7.9 µM | 21.7 µM | 5.08 µM | 30.5 µM | 9.4 µM | 22.3 µM | 1.17 µM | 10.3 µM | 8.38 µM | 25.5 µM | 4.38 µM | 16.7 µM |
| CC(C)Cc1ccc(C(C)CC2=CCC(CN(C)C)C2=O)cc1 (stereo not given) |  | 24 µM |  | 32.1 µM |  | 23 µM |  | 33.4 µM |  | 26.9 µM |  | 20.3 µM |  | 6.77 µM |  | 30.1 µM |  | 14.3 µM |  | 38.9 µM |
| COc1cc2c(cc1O)CC1c3c(cc(O)c(OC)c3-2)CCN1C (stereo not given) |  | > 100 µM |  | > 100 µM |  | > 100 µM |  | > 100 µM |  | > 100 µM |  | > 100 µM |  | > 100 µM |  | > 100 µM |  | > 100 µM |  | > 100 µM |
| COc1ccc(C(=O)NNc2nc(Cl)nc(N3CCN(C(c4ccccc4)c4ccccc4)CC3)n2)cc1 | 1.67 µM | 3.11 µM | 16 µM | 30.6 µM | 1.82 µM | 3.54 µM | 10.4 µM | 23.2 µM | 2.14 µM | 4.91 µM | 1.89 µM | 4.36 µM | 3.21 µM | 13.4 µM | 3.2 µM | 18.5 µM | 1.83 µM | 3.84 µM | 1.74 µM | 3.47 µM |
